Test results taken from patent publication USRE42890E1, “Furazanobenzimidazoles” (Basilea Pharmaceutica AG, priority 2003, dated 2011).
Blank lines part the entries; values can stand above or below the molecule they belong to.

What was measured:
[1] = system: adherent cells or suspension cells; assay: Hoechst 33342 nuclear staining (fraction of apoptotic nuclei); type: cell-based; design: key: 0 relating to no activity; 1 relating to weak activity comprising less than 70% of the cells; score 2 relating to strong activity comprising more than 70% of the cells
Jily = assay: MTS proliferation assay, Jily; type: cell-based; conditions: 72 h incubation, read-out: MTS proliferation assay IC 50 Jily
Experimental: Cell lines are cultured in RPMI-1640 tissue culture medium containing either 5% or 10% fetal calf serum, 0.05 mM 2-mercaptoethanol, 2 mM glutamine and penicillin/streptomycin 50 μg/ml (complete medium) (Sigma, Buchs, Switzerland). General growth conditions are 37° C. and 7.5% CO2.
The assay is performed in 96 well tissue culture plates. The cells (range: 1.5*10^3-10^4) are seeded out in 80 μl complete medium 24 h prior to compound treatment. The test compounds are added in 20 μl complete medium containing max 5% DMSO. The final compound concentrations in the assays are 10 μM, 3 μM, 1 μM and 0.3 μM, respectively. The assay plates are incubated for 72 h at culture conditions. The MTS reagent is prepared according to the manufacturer's protocol (Promega G1111). 20 μl MTS reagent are added to each well, the assay plates are quickly spun and incubated for another 3 h at culture conditions. Subsequently, the plates are shortly shaked and absorption measured with a microplate-reader at 492 nm.

HeLa = assay: MTS proliferation assay, HeLa; type: cell-based, human; conditions: 72 h incubation, read-out: MTS proliferation assay IC 50 HeLa
Outline: (§1)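 Seed cells (1.5*10^3-10^4/well) 24 h ahead; add compound, final 10/3/1/0.3 μM; incubate 72 h, 37 °C, 7.5% CO2; MTS 3 h; read A492.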

HT1080 = assay: MTS proliferation assay, HT1080; type: cell-based, human; conditions: HT1080, 72 h incubation; read-out: MTS proliferation assay IC 50 HT1080
Outline: as §1

MRC5 = assay: MTS proliferation assay, MRC5; type: cell-based; conditions: MRC5, 72 h incubation; read-out: MTS proliferation assay IC 50 MRC5
Outline: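 RPMI-1640 + 5% or 10% FCS; seeded 24 h pre-dose; cpd final 10/3/1/0.3 μM, max 5% DMSO in added volume; 72 h, 37° C, 7.5% CO2; MTS 3 h; A492.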

- IC50 (HeLa): 10 to 100 nM
Structure (SMILES): Cc1ccc(C(=O)Cn2c(-c3nonc3NCCCO)nc3ccccc32)cc1C [Example 52]
- Hoechst 33342 nuclear staining score ([1]; H460, conc 0.01 μm): 0
- Hoechst 33342 nuclear staining score ([1]; H460, conc 0.1 μm): 1 (1 relating to weak activity comprising less than 70% of the cells)
- Hoechst 33342 nuclear staining score ([1]; H460, conc 1 μm): 2 (score 2 relating to strong activity comprising more than 70% of the cells)
- Hoechst 33342 nuclear staining score ([1]; HeLa, conc 0.01 μm): 0
- Hoechst 33342 nuclear staining score ([1]; HeLa, conc 0.1 μm): 2 (score 2 relating to strong activity comprising more than 70% of the cells)
- Hoechst 33342 nuclear staining score ([1]; HeLa, conc 1 μm): 2 (score 2 relating to strong activity comprising more than 70% of the cells)
- Hoechst 33342 nuclear staining score ([1]; Jily, conc 0.01 μm): 0
- Hoechst 33342 nuclear staining score ([1]; Jily, conc 0.1 μm): 2 (score 2 relating to strong activity comprising more than 70% of the cells)
- Hoechst 33342 nuclear staining score ([1]; Jily, conc 1 μm): 2 (score 2 relating to strong activity comprising more than 70% of the cells)
- Hoechst 33342 nuclear staining score ([1]; Jurkat, conc 0.01 μm): 0
- Hoechst 33342 nuclear staining score ([1]; Jurkat, conc 0.1 μm): 2 (score 2 relating to strong activity comprising more than 70% of the cells)
- Hoechst 33342 nuclear staining score ([1]; Jurkat, conc 1 μm): 2 (score 2 relating to strong activity comprising more than 70% of the cells)
- Hoechst 33342 nuclear staining score ([1]; MRC5, conc 0.01 μm): 0
- Hoechst 33342 nuclear staining score ([1]; MRC5, conc 0.1 μm): 2 (score 2 relating to strong activity comprising more than 70% of the cells)
- Hoechst 33342 nuclear staining score ([1]; MRC5, conc 1 μm): 2 (score 2 relating to strong activity comprising more than 70% of the cells)
- Hoechst 33342 nuclear staining score ([1]; PBLs, conc 0.01 μm): 0
- Hoechst 33342 nuclear staining score ([1]; PBLs, conc 0.1 μm): 0
- Hoechst 33342 nuclear staining score ([1]; PBLs, conc 1 μm): 0
- IC50 (Jily): 10 to 100 nM

- IC50 (HeLa): 10 to 100 nM
Structure (SMILES): Cc1ccc(C(=O)Cn2c(-c3nonc3N)nc3ccccc32)cc1C [Example 53]
- Hoechst 33342 nuclear staining score ([1]; H460, conc 0.01 μm): 0
- Hoechst 33342 nuclear staining score ([1]; H460, conc 0.1 μm): 2 (score 2 relating to strong activity comprising more than 70% of the cells)
- Hoechst 33342 nuclear staining score ([1]; H460, conc 1 μm): 2 (score 2 relating to strong activity comprising more than 70% of the cells)
- Hoechst 33342 nuclear staining score ([1]; HeLa, conc 0.01 μm): 0
- Hoechst 33342 nuclear staining score ([1]; HeLa, conc 0.1 μm): 2 (score 2 relating to strong activity comprising more than 70% of the cells)
- Hoechst 33342 nuclear staining score ([1]; HeLa, conc 1 μm): 2 (score 2 relating to strong activity comprising more than 70% of the cells)
- Hoechst 33342 nuclear staining score ([1]; Jily, conc 0.01 μm): 0
- Hoechst 33342 nuclear staining score ([1]; Jily, conc 0.1 μm): 2 (score 2 relating to strong activity comprising more than 70% of the cells)
- Hoechst 33342 nuclear staining score ([1]; Jily, conc 1 μm): 2 (score 2 relating to strong activity comprising more than 70% of the cells)
- Hoechst 33342 nuclear staining score ([1]; Jurkat, conc 0.01 μm): 2 (score 2 relating to strong activity comprising more than 70% of the cells)
- Hoechst 33342 nuclear staining score ([1]; Jurkat, conc 0.1 μm): 2 (score 2 relating to strong activity comprising more than 70% of the cells)
- Hoechst 33342 nuclear staining score ([1]; Jurkat, conc 1 μm): 2 (score 2 relating to strong activity comprising more than 70% of the cells)
- Hoechst 33342 nuclear staining score ([1]; MRC5, conc 0.01 μm): 1 (1 relating to weak activity comprising less than 70% of the cells)
- Hoechst 33342 nuclear staining score ([1]; MRC5, conc 0.1 μm): 2 (score 2 relating to strong activity comprising more than 70% of the cells)
- Hoechst 33342 nuclear staining score ([1]; MRC5, conc 1 μm): 2 (score 2 relating to strong activity comprising more than 70% of the cells)
- Hoechst 33342 nuclear staining score ([1]; PBLs, conc 0.01 μm): 0
- Hoechst 33342 nuclear staining score ([1]; PBLs, conc 0.1 μm): 0
- Hoechst 33342 nuclear staining score ([1]; PBLs, conc 1 μm): 0
- IC50 (Jily): 10 to 100 nM

- IC50 (HT1080): 10 to 100 nM
- IC50 (HeLa): 10 to 100 nM
Structure (SMILES): Cc1ccc(C(=O)Cn2c(-c3nonc3NCCC#N)nc3ccccc32)cc1C [Example 54]
- IC50 (MRC5): 10 to 100 nM
- Hoechst 33342 nuclear staining score ([1]; H460, conc 0.01 μm): 0
- Hoechst 33342 nuclear staining score ([1]; H460, conc 0.1 μm): 2 (score 2 relating to strong activity comprising more than 70% of the cells)
- Hoechst 33342 nuclear staining score ([1]; H460, conc 1 μm): 2 (score 2 relating to strong activity comprising more than 70% of the cells)
- Hoechst 33342 nuclear staining score ([1]; HeLa, conc 0.01 μm): 0
- Hoechst 33342 nuclear staining score ([1]; HeLa, conc 0.1 μm): 2 (score 2 relating to strong activity comprising more than 70% of the cells)
- Hoechst 33342 nuclear staining score ([1]; HeLa, conc 1 μm): 2 (score 2 relating to strong activity comprising more than 70% of the cells)
- Hoechst 33342 nuclear staining score ([1]; Jily, conc 0.01 μm): 1 (1 relating to weak activity comprising less than 70% of the cells)
- Hoechst 33342 nuclear staining score ([1]; Jily, conc 0.1 μm): 2 (score 2 relating to strong activity comprising more than 70% of the cells)
- Hoechst 33342 nuclear staining score ([1]; Jily, conc 1 μm): 2 (score 2 relating to strong activity comprising more than 70% of the cells)
- Hoechst 33342 nuclear staining score ([1]; Jurkat, conc 0.01 μm): 1 (1 relating to weak activity comprising less than 70% of the cells)
- Hoechst 33342 nuclear staining score ([1]; Jurkat, conc 0.1 μm): 2 (score 2 relating to strong activity comprising more than 70% of the cells)
- Hoechst 33342 nuclear staining score ([1]; Jurkat, conc 1 μm): 2 (score 2 relating to strong activity comprising more than 70% of the cells)
- Hoechst 33342 nuclear staining score ([1]; MRC5, conc 0.01 μm): 0
- Hoechst 33342 nuclear staining score ([1]; MRC5, conc 0.1 μm): 2 (score 2 relating to strong activity comprising more than 70% of the cells)
- Hoechst 33342 nuclear staining score ([1]; MRC5, conc 1 μm): 2 (score 2 relating to strong activity comprising more than 70% of the cells)
- Hoechst 33342 nuclear staining score ([1]; PBLs, conc 0.01 μm): 0
- Hoechst 33342 nuclear staining score ([1]; PBLs, conc 0.1 μm): 0
- Hoechst 33342 nuclear staining score ([1]; PBLs, conc 1 μm): 0
- IC50 (Jily): 10 to 100 nM

- IC50 (HT1080): 100 to 1000 nM
- IC50 (HeLa): 100 to 1000 nM
Structure (SMILES): CCc1ccc(C(=O)Cn2c(-c3nonc3N)nc3ccccc32)cc1 [Example 55]
- IC50 (MRC5): 100 to 1000 nM
- Hoechst 33342 nuclear staining score ([1]; H460, conc 0.01 μm): 0
- Hoechst 33342 nuclear staining score ([1]; H460, conc 0.1 μm): 0
- Hoechst 33342 nuclear staining score ([1]; H460, conc 1 μm): 2 (score 2 relating to strong activity comprising more than 70% of the cells)
- Hoechst 33342 nuclear staining score ([1]; HeLa, conc 0.01 μm): 0
- Hoechst 33342 nuclear staining score ([1]; HeLa, conc 0.1 μm): 0
- Hoechst 33342 nuclear staining score ([1]; HeLa, conc 1 μm): 2 (score 2 relating to strong activity comprising more than 70% of the cells)
- Hoechst 33342 nuclear staining score ([1]; Jily, conc 0.01 μm): 0
- Hoechst 33342 nuclear staining score ([1]; Jily, conc 0.1 μm): 0
- Hoechst 33342 nuclear staining score ([1]; Jily, conc 1 μm): 2 (score 2 relating to strong activity comprising more than 70% of the cells)
- Hoechst 33342 nuclear staining score ([1]; Jurkat, conc 0.01 μm): 0
- Hoechst 33342 nuclear staining score ([1]; Jurkat, conc 0.1 μm): 1 (1 relating to weak activity comprising less than 70% of the cells)
- Hoechst 33342 nuclear staining score ([1]; Jurkat, conc 1 μm): 2 (score 2 relating to strong activity comprising more than 70% of the cells)
- Hoechst 33342 nuclear staining score ([1]; MRC5, conc 0.01 μm): 0
- Hoechst 33342 nuclear staining score ([1]; MRC5, conc 0.1 μm): 0
- Hoechst 33342 nuclear staining score ([1]; MRC5, conc 1 μm): 0
- Hoechst 33342 nuclear staining score ([1]; PBLs, conc 0.01 μm): 0
- Hoechst 33342 nuclear staining score ([1]; PBLs, conc 0.1 μm): 0
- Hoechst 33342 nuclear staining score ([1]; PBLs, conc 1 μm): 0
- IC50 (Jily): 10 to 100 nM

- IC50 (HT1080): 10 to 100 nM
- IC50 (HeLa): 10 to 100 nM
Structure (SMILES): CCc1ccc(C(=O)Cn2c(-c3nonc3NCCC#N)nc3ccccc32)cc1 [Example 56]
- IC50 (MRC5): 10 to 100 nM
- Hoechst 33342 nuclear staining score ([1]; H460, conc 0.01 μm): 0
- Hoechst 33342 nuclear staining score ([1]; H460, conc 0.1 μm): 0
- Hoechst 33342 nuclear staining score ([1]; H460, conc 1 μm): 2 (score 2 relating to strong activity comprising more than 70% of the cells)
- Hoechst 33342 nuclear staining score ([1]; HeLa, conc 0.01 μm): 0
- Hoechst 33342 nuclear staining score ([1]; HeLa, conc 0.1 μm): 1 (1 relating to weak activity comprising less than 70% of the cells)
- Hoechst 33342 nuclear staining score ([1]; HeLa, conc 1 μm): 2 (score 2 relating to strong activity comprising more than 70% of the cells)
- Hoechst 33342 nuclear staining score ([1]; Jily, conc 0.01 μm): 0
- Hoechst 33342 nuclear staining score ([1]; Jily, conc 0.1 μm): 2 (score 2 relating to strong activity comprising more than 70% of the cells)
- Hoechst 33342 nuclear staining score ([1]; Jily, conc 1 μm): 2 (score 2 relating to strong activity comprising more than 70% of the cells)
- Hoechst 33342 nuclear staining score ([1]; Jurkat, conc 0.01 μm): 0
- Hoechst 33342 nuclear staining score ([1]; Jurkat, conc 0.1 μm): 2 (score 2 relating to strong activity comprising more than 70% of the cells)
- Hoechst 33342 nuclear staining score ([1]; Jurkat, conc 1 μm): 2 (score 2 relating to strong activity comprising more than 70% of the cells)
- Hoechst 33342 nuclear staining score ([1]; MRC5, conc 0.01 μm): 0
- Hoechst 33342 nuclear staining score ([1]; MRC5, conc 0.1 μm): 1 (1 relating to weak activity comprising less than 70% of the cells)
- Hoechst 33342 nuclear staining score ([1]; MRC5, conc 1 μm): 1 (1 relating to weak activity comprising less than 70% of the cells)
- Hoechst 33342 nuclear staining score ([1]; PBLs, conc 0.01 μm): 0
- Hoechst 33342 nuclear staining score ([1]; PBLs, conc 0.1 μm): 0
- Hoechst 33342 nuclear staining score ([1]; PBLs, conc 1 μm): 0
- IC50 (Jily): 10 to 100 nM
